Measured values published in US20250152719A1, “FUSED IMIDE DERIVATIVE” (Chia Tai Tianqing Pharmaceutical Group Co., Ltd., priority 2021, published 2025).
Like-named read-outs stand apart in the source and are kept apart here.

Assays:
TMD8-BTK(C481S) cells = test: Inhibitory activity on TMD8-BTK(C481S) cell proliferation (CCK-8); type: cell-based; conditions: 72 h incubation
Method in brief: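 Cells seeded at 8×10^4 cells/mL, incubated overnight, then treated in duplicate with compounds at 5000 nM-0.31 nM for 72 h. Viability by CCK-8 (4 h, absorbance 450 nm); IC50 from four-parameter dose-response fits.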

BTK = BTK (Homo sapiens (Human), UniProt Q06187); test: BTK degradation in OCI-LY10 cells (Total-BTK HTRF kit); type: cell-based; conditions: OCI-Ly10, OCI-LY10 cells, 24 (or 6) h incubation; maximum degradation rate
Method in brief: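 OCI-LY10 cells seeded overnight, then treated with compound at 100 nM-0.098 nM in duplicate for 24 (or 6) h. Lysates probed by Total-BTK HTRF (d2/Eu cryptate antibodies, overnight, room temperature), read at 665/620 nm; DC50 and Dmax from four-parameter dose-response fits.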

BTK(C481S) kinase = BTK(C481S) kinase (Homo sapiens (Human), UniProt Q06187, C481S); test: Inhibitory activity on BTK(C481S) kinase; type: biochemical; conditions: ATP 10 μM
Method: The Assay Buffer was prepared, and the composition of the Assay Buffer was 50 mM Hepes (Gibco, 15630), 10 mM MgCl2, 2 mM DTT, 1 mM EGTA, and 0.010% Tween 20. BTK(C481S) kinase (Carna Biosciences, 08-547), ATP (Sigma, A7699), and ULight-poly GT (PE, TRF0100-M) working solutions were prepared using the Assay Buffer. EDTA and Eu-labeled anti-phosphotyrosine (PT66) antibody (PE, AD0069) working solutions were prepared using the Detection Buffer. 6 μL of BTK(C481S) kinase at the corresponding concentration (final concentration: 0.005 ng/μL) was added to the compound groups and the control group, while 6 μL of the Assay Buffer was added to the blank group, and then the compounds (with the concentration set to 1000 nM at the maximum, 4-fold dilution, 7 concentration gradients) were added using a nanoliter pipettor. The mixture was incubated at room temperature for 30 min, and then 4 μL of the mixture of ATP (final concentration: 10 μM) and ULight-poly GT (final concentration: 100 nM) was added. After incubation at room temperature for 2 h, 5 μL of EDTA (final concentration: 10 mM) was added to stop the reaction, and finally 5 μL of antibody (final concentration: 2 nM) was added. After incubation at room temperature for 1 h, signal values were detected at 665/615 nM, the four-parameter analysis was performed, the dose-response curves were fit, and IC50 was calculated.

[1] = In vitro liver microsomal stability, mouse; conditions: 0.5 mg/mL microsomes, NADPH, 37° C., 1 h
Method: (§1) Liver microsome incubation samples were prepared by mixing a PBS buffer (pH 7.4), a liver microsome solution (0.5 mg/mL), a test compound, and an NADPH+MgCl2 solution and incubated at 37° C. and 300 rpm for 1 h. Zero-hour samples were prepared by mixing a PBS buffer (pH 7.4), a liver microsome solution (0.5 mg/mL), and a test compound. An acetonitrile solution containing an internal standard was added to the samples, and supernatants were prepared by protein precipitation, diluted, and then assayed by LC/MS/MS.

BTK(WT) kinase = BTK(WT) kinase (Homo sapiens (Human), UniProt Q06187); test: Inhibitory activity on BTK(WT) kinase; type: biochemical; conditions: ATP 10 μM
Method: The Assay Buffer was prepared, and the composition of the Assay Buffer was 50 mM Hepes (Gibco, 15630), 10 mM MgCl2, 2 mM DTT, 1 mM EGTA, and 0.010% Tween 20. BTK(WT) kinase (Life, PR5442A), ATP (Sigma, A7699), and ULight-poly GT (PE, TRF0100-M) working solutions were prepared using the Assay Buffer. EDTA and Eu-labeled anti-phosphotyrosine (PT66) antibody (PE, AD0069) working solutions were prepared using the Detection Buffer (PE, CR97-100). 6 μL of BTK(WT) kinase at the corresponding concentration (final concentration: 0.003 ng/L) was added to the compound groups and the control group, while 6 μL of the Assay Buffer was added to the blank group, and then the compounds (with the concentration set to 1000 nM at the maximum, 4-fold dilution, 7 concentration gradients) were each added using a nanoliter pipettor. The mixture was incubated at room temperature for 30 min, and then 4 μL of the mixture of ATP (final concentration: 10 μM) and ULight-poly GT (final concentration: 100 nM) was added. After incubation at room temperature for 2 h, 5 μL of EDTA (final concentration: 10 mM) was added to stop the reaction, and finally 5 μL of antibody (final concentration: 2 nM) was added. After incubation at room temperature for 1 h, signal values were detected at 665/615 nM, the four-parameter analysis was performed, the dose-response curves were fit, and IC50 was calculated.

EGFR kinase = EGFR kinase (Homo sapiens (Human), UniProt P00533); test: Inhibitory activity on EGFR kinase; type: biochemical; conditions: ATP 5 μM
Method: The Assay Buffer was prepared, and the composition of the Assay Buffer was 50 mM Hepes (Gibco, 15630), 10 mM MgCl2, 2 mM DTT, 1 mM EGTA, and 0.010% Tween 20. EGFR kinase (Carna, 08-115), ATP (Sigma, A7699), and ULight-poly GT (PE, TRF0100-M) working solutions were prepared using the Assay Buffer. EDTA and Eu-labeled anti-phosphotyrosine (PT66) antibody (PE, AD0069) working solutions were prepared using the Detection Buffer. 6 μL of EGFR kinase at the corresponding concentration (final concentration: 0.006 ng/μL) was added to the compound groups and the control group, while 6 μL of the Assay Buffer was added to the blank group, and then the compounds (with the concentration set to 1000 nM at the maximum, 4-fold dilution, 7 concentration gradients) were added using a nanoliter pipettor. The mixture was incubated at room temperature for 30 min, and then 4 μL of the mixture of ATP (final concentration: 5 μM) and ULight-poly GT (final concentration: 100 nM) was added. After incubation at room temperature for 2 h, 5 μL of EDTA (final concentration: 10 mM) was added to stop the reaction, and finally 5 μL of antibody (final concentration: 2 nM) was added. After incubation at room temperature for 1 h, signal values were detected at 665/615 nM, the four-parameter analysis was performed, the dose-response curves were fit, and IC50 was calculated.

[2] = In vitro liver microsomal stability, human; type: in vitro ADME; conditions: 0.5 mg/mL microsomes, NADPH, 37° C., 1 h
Method: as §1

TMD-8 xenograft tumors = test: In vivo drug efficacy, TMD-8 mouse subcutaneous xenograft tumors; set-up: species or system NOD-SCID mice; conditions: 30 mg/kg, qd, i.g.; for TGI d 17: 16 days, tumor weight on day 17; for TV on d 0 Mean ± SD: day 0 (baseline at grouping); for TV on d 12 Mean ± SD: day 12; for TV on d 15 Mean ± SD: day 15
Method: TMD-8 mouse subcutaneous xenograft tumors: TMD-8 (WT) cells at a concentration of 1×10^8/mL were inoculated under aseptic conditions into the right side armpit of NOD-SCID mice at 0.1 mL/mouse. After subcutaneous grafting, the animals were divided into groups with 6 animals in each group when the tumor volume reached about 188 mm^3 (or 200 mm^3):
model group: vehicle, 6 mice; compound administration groups: 30 mg/kg, qd, i.g., 6 mice.
The vehicle or the test compound was intragastrically given at a volume of 4 mL/kg, once daily for 16 consecutive days. The tumor volume was measured 2-3 times a week, and meanwhile, the mice were weighed and the data were recorded; the general behaviors of the animals were observed every day. After all dosing was complete, the animals were sacrificed on day 17, and the tumors were removed and weighed.
The tumor volume and the tumor growth inhibition were calculated using the following formulae:
Tumor volume (TV)=(Length×Width^2)/2.
Tumor growth inhibition (TGI)=(1−tumor weight of treatment group/tumor weight of model group)×100%.

Mouse pharmacokinetics = type: in vivo, ICR mice; conditions: for clearance / half-life / AUC / Cmax: ICR, mouse, plasma; for AUC: read-out: AUC; for Cmax: read-out: Cmax
Method: ICR mice weighing 18-22 g were randomized into groups of 9 after 3-5 days of acclimatization and then intragastrically given the test compound solution at a dose of 10 mg/kg. Plasma samples to be tested were prepared by taking blood from the orbit at time points of 15 min, 30 min, 1 h, 2 h, 3 h, 4 h, 6 h, 8 h, 10 h, and 24 h. 20 μL of each plasma sample to be detected and a standard curve sample were taken, and an acetonitrile solution containing an internal standard was added. […] Pharmacokinetic parameters were fitted using a non-compartmental model (see Table 5).

[3] = tested on: OCI-LY10-BTK(C481S) cells; test: Inhibitory activity on OCI-LY10-BTK(C481S) cell proliferation (CCK-8); type: cell-based; conditions: 72 h, 72 h incubation, IC50 per method, unit inferred
Method: OCI-LY10(C481S) cells in the logarithmic growth phase were collected and added to a centrifuge tube, adjusted to a cell density of 5×10^4 cells/mL, and seeded in a 96-well plate (100 μL/well). Meanwhile, compounds were added using a nanoliter pipettor such that the final concentrations of the compounds were 5000 nM-0.31 nM; the addition was performed in duplicate, and meanwhile, a control was set. After another 72 h of incubation in the cell incubator, the detection reagent CCK-8 (manufacturer: Dojindo Laboratories, Beijing; 10 μL/well) was added. After 3 h of incubation in the cell incubator, absorbance values were detected at 450 nm using a PerkinElmer Envision microplate reader, the four-parameter analysis was performed, the dose-response curves were fit, and IC50 was calculated.

OCI-LY10 cells = test: Inhibitory activity on OCI-LY10 cell proliferation (CCK-8); type: cell-based; conditions: Homo sapiens, OCI-Ly10, 72 h incubation
Method in brief: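 Cells seeded at 1×10^5 cells/mL and incubated overnight were exposed in duplicate to final compound concentrations of 5000 nM-0.31 nM for 72 h. CCK-8 was added for 2.5 h and absorbance read at 450 nm. IC50 was obtained from four-parameter dose-response fits.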

[4] = po, 10 mg/kg, Mouse i.g. 10 mpk

BTK, sequence (Q06187 whole entry): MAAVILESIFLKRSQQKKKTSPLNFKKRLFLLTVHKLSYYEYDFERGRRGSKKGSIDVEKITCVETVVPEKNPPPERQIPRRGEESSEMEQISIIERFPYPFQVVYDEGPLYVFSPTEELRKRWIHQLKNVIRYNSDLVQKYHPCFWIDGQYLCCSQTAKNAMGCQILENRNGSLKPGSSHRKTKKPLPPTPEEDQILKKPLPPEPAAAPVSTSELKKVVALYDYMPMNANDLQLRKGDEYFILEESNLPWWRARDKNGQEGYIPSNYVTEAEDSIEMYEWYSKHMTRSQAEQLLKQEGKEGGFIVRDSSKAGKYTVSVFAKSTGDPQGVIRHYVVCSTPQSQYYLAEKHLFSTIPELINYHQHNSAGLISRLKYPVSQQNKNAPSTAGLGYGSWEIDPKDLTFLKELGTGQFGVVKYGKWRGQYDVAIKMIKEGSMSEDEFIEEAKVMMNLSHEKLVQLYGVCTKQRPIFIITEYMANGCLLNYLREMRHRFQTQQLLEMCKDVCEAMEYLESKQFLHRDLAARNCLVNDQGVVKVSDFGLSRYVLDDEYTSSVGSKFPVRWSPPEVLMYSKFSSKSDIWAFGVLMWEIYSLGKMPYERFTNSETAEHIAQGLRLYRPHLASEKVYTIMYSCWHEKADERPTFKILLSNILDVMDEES
BTK(WT) kinase, sequence (Q06187 whole entry): as above
EGFR kinase, sequence (P00533 669-1210): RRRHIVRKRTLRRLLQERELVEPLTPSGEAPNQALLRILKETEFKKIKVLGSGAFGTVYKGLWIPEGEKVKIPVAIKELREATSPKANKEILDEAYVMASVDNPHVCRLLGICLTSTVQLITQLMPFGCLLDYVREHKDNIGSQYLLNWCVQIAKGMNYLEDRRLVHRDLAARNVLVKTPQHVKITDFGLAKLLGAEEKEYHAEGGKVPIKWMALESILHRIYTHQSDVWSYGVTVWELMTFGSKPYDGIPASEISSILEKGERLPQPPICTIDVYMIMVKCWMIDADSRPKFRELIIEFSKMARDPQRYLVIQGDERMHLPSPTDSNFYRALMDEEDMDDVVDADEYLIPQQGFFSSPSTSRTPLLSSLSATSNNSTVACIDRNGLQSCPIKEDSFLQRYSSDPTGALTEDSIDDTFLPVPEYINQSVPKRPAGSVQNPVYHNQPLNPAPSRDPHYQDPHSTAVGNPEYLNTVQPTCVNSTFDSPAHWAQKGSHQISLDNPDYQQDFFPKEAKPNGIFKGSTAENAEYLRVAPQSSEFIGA
BTK(C481S) kinase, sequence (Q06187 whole entry C481S): as the sequence (Q06187 whole entry) above, with C481S counted along it

| SMILES | IC50 (TMD8-BTK(C481S) cells; 72 h) [nM] | Dmax (BTK) [%] | IC50 (BTK(C481S) kinase) [nM] | Mouse liver microsome Residuals at 60 min [1] [%] | IC50 (BTK(WT) kinase) [nM] | IC50 (EGFR kinase) [nM] | Human liver microsome Residuals at 60 min [2] [%] | TGI d 17 (TMD-8 xenograft tumors) [%] | TV on d 0 Mean ± SD (TMD-8 xenograft tumors) [mm^3] | TV on d 12 Mean ± SD (TMD-8 xenograft tumors) [mm^3] | TV on d 15 Mean ± SD (TMD-8 xenograft tumors) [mm^3] | clearance (Mouse pharmacokinetics; iv, 1 mg/kg, Mouse i.v. 1 mpk) [mL/min/kg] | half-life (Mouse pharmacokinetics; iv, 1 mg/kg, Mouse i.v. 1 mpk) [h] | AUC (Mouse pharmacokinetics; iv, 1 mg/kg, Mouse i.v. 1 mpk) [ng·h/mL] | half-life (Mouse pharmacokinetics; [4]) [h] | AUC (Mouse pharmacokinetics; [4]) [ng·h/mL] | Cmax (Mouse pharmacokinetics; [4]) [ng/mL] | F (Mouse pharmacokinetics; Mouse i.g. 10 mpk) [%] | IC50 [3] [nM] | also measured |
| --- | --- | --- | --- | --- | --- | --- | --- | --- | --- | --- | --- | --- | --- | --- | --- | --- | --- | --- | --- | --- |
| CN1CCN([C@@H]2CCCN(c3cnc(C(N)=O)c(Nc4ccc(C5CCC6(CC5)CCN(CC5Cc7ccc8c(C9CCC(=O)NC9=O)noc8c7C5)CC6)cc4)n3)C2)C1=O (stereo partly shown) [Compound 50] | 4 | > 90 | 0.81 | 63.1 | 0.42 | 69 | – | – | – | – | – | – | – | – | – | – | – | – | – | – |
| CN1CCN([C@@H]2CCCN(c3cnc(C(N)=O)c(Nc4ccc(C5CCC6(CC5)CC(N5CCc7ccc8c(C9CCC(=O)NC9=O)noc8c7CC5)C6)cc4)n3)C2)C1=O (stereo partly shown) [Compound 59] | 12 | > 90 | 9.1 | 47.0 | 5.4 | 279 | – | – | – | – | – | – | – | – | – | – | – | – | – | – |
| NC(=O)c1ncc(N2CCCCC2)nc1Nc1ccc(C2CCN(C3Cc4ccc5c(C6CCC(=O)NC6=O)noc5c4C3)CC2)cc1 (stereo not shown) [Compound 69] | – | – | – | 85.0 | – | – | 80.0 | 96.4 | 226 ± 21 | 246 ± 56 | 199 ± 72 | 2 | 2.6 | 8030 | 7 | 41400 | 2730 | 51.6 | – | IC50 (TMD8-BTK(C481S) cells): 5.7 nM |
| NC(=O)c1ncc(N2CCCCC2)nc1Nc1ccc(N2CCC(CN3CCc4ccc5c(C6CCC(=O)NC6=O)noc5c4CC3)CC2)cc1 (stereo not shown) [Compound 72] | 2.6 | > 90 | – | – | – | – | 94.0 | 97.9 | 226 ± 21 | 246 ± 52 | 122 ± 78 | 12 | 2.3 | 1290 | 4.6 | 8300 | 634 | 64.50 | – | – |
| CN1CCN([C@@H]2CCCN(c3cnc(C(N)=O)c(Nc4ccc(C5CCN(C6CN(c7cc8onc(C9CCC(=O)NC9=O)c8c8ccccc78)C6)CC5)cc4)n3)C2)C1=O (stereo partly shown) [Compound 93] | – | > 90 | – | 72.0 | – | – | 53.0 | – | – | – | – | – | – | – | – | – | – | – | 0.7 | – |
| NC(=O)c1ncc(N2CCCCC2)nc1Nc1ccc(C2CCN(CC3CN(c4ccc5c(C6CCC(=O)NC6=O)noc5c4)C3)CC2)cc1 (stereo not shown) [Compound 94] | – | > 90 | – | 75.0 | – | – | 81.0 | – | – | – | – | – | – | – | – | – | – | – | 0.53 | IC50 (OCI-LY10 cells): < 0.31 nM |
